Data: article PMC8534114, “Molecular Basis of a Dominant SARS-CoV-2 Spike-Derived Epitope Presented by HLA-A*02:01 Recognised by a Public TCR” (Cells, 2021)

Experiments:
CD8+ T cells [1] = details: cited from earlier work
CD8+ T cells [2] = type: cell-based, human

YLQPRTFLL
CD8+ T cell response (in words) (CD8+ T cells [1]): strong CD8+ T cell response | CD8+ T cell stimulation (in words) (CD8+ T cells [1]): strongly stimulate CD8+ T cells | CD8+ T cell response, overall (CD8+ T cells [2]): all able to generate a polyfunctional CD8+ T cell response
